# Test results: patent US6391863B1, “Use of carbohydrates for promoting skin desquamation” (L'Oreal, priority 1995, dated 2002)
# System: Banderia simplicifolia isolectin B4
# Test: Inhibition of lectin-induced haemagglutination (model of corneocyte cohesion)
# Assay type: cell-based
# Details: rabbit erythrocytes; lectin at twice its minimum haemagglutinating concentration; carbohydrate starting solution 0.1M, successive dilutions; 30 min contact at ambient temperature
# Protocol: A test to measure the efficacy of the carbohydrates was carried out in vitro. […] The principle of the test lies in the fact that the lectin causes agglutination of the erythrocytes. The products to be tested, which are prepared at various dilutions, are added to the lectin solutions. The minimum concentration of product allowing the inhibition of haemagglutination caused by the lectin is measured. […] To carry out the tests, rabbit erythrocytes marketed by the company Biomérieux under the reference 72291 are employed. These erythrocytes are used in 50% suspension in water. The lectin used is Banderia simplicifolia isolectin B4, marketed by the company SYGMA. All the solutions are diluted in phosphate buffer containing calcium and magnesium. The lectin is dissolved in the phosphate buffer at a concentration of 1 mg/ml. 25 μl of phosphate buffer are distributed in all the wells of the microtitre plates. 25 μl of the lectin to be tested are added to the second well. After homogenization, 25 μl from this well are transferred into the following well and so on to obtain successive dilutions. The erythrocytes are diluted to 1/10^e (fresh solution) . 5 μl of the suspension and 5 μl of the contents of a well are placed on a plate. After mixing by rotation, it is observed whether or not there is haemagglutination. The latter develops in 5 min at the maximum. The minimum quantity of lectin is thus measured, which allows a clear erythrocyte haemagglutination to be obtained. After having measured the minimum quantity of lectin which allows a clear erythrocyte haemagglutination to be obtained, it is chosen to work at twice the concentration. 25 μl of phosphate buffer are placed in microtitre plates to carry out a negative control. In the other wells are distributed 25 μl of lectin at the determined concentration. In the second well are added 25 μl of phosphate buffer to obtain a positive control. In the third well are placed 25 μl of the carbohydrate derivative to be tested in solution at a concentration of 0.1M. After homogenization, 25 μl from this well are taken and placed in the following well and so on so as to obtain successive dilutions. After having left the lectin and the carbohydrate derivative in contact for 30 min at ambient temperature, 5 μl are placed on a plate and are mixed with 5 μl of erythrocyte suspension. It is observed whether or not there is haemagglutination after agitation by rotation. The lowest carbohydrate dilution allowing inhibition of haemagglutination to be observed is measured. The result is given as a fraction (corresponding to the dilution) of the initial concentration (0.1M).
row,Compound,"lowest carbohydrate dilution allowing inhibition of haemagglutination to be observed, given as a fraction (corresponding to the dilution) of the initial concentration (0.1M)"
1,"CC(=O)N[C@H]1C(O)O[C@H](CO)[C@@H](O)[C@@H]1O (stereo partly drawn) [N-acetyl-D-glucosamine, reference compound]",no inhibition observed
2,"CCCCCCCC(=O)OC[C@H]1O[C@H](O[C@H]2[C@H](O)[C@@H](O)[C@H](O)O[C@@H]2CO)[C@H](O)[C@@H](O)[C@@H]1O [6′-O-octanoyl-D-maltose, 6′-O-octanoyl-β-D-maltose]",¼
3,N-2-ethylhexyloxy-carbonyl-N-methyl-D-glucamine,1/16
4,CCCCCCCCOC(=O)N(C)C[C@H](O)[C@@H](O)[C@H](O)[C@H](O)CO [N-octyloxycarbonyl-N-methyl-D-glucamine],1/64
